Measurements taken from ChEMBL document CHEMBL1275492, “In vitro activity of ceftobiprole against pathogens from two phase 3 clinical trials of complicated skin and skin structure infections” (2008).
In brackets after ≈: the same amount, converted by molar mass.

Legend:
Format in all cases: functional
Proteus penneri = experiment: Antibacterial activity against Proteus penneri obtained from complicated skin and skin structure infections by agar dilution method
Citrobacter braakii = experiment: Antibacterial activity against Citrobacter braakii obtained from complicated skin and skin structure infections by agar dilution method
Enterobacter cloacae = experiment: Antibacterial activity against Enterobacter cloacae obtained from complicated skin and skin structure infections by agar dilution method
Klebsiella oxytoca = experiment: Antibacterial activity against Klebsiella oxytoca obtained from complicated skin and skin structure infections by agar dilution method
Salmonella = experiment: Antibacterial activity against Salmonella spp. obtained from complicated skin and skin structure infections by agar dilution method
Pseudomonas aeruginosa = experiment: Antibacterial activity against Pseudomonas aeruginosa obtained from complicated skin and skin structure infections by agar dilution method
Morganella morganii = experiment: Antibacterial activity against Morganella morganii obtained from complicated skin and skin structure infections by agar dilution method
Klebsiella aerogenes = experiment: Antibacterial activity against Enterobacter aerogenes obtained from complicated skin and skin structure infections by agar dilution method
Proteus mirabilis = experiment: Antibacterial activity against Proteus mirabilis obtained from complicated skin and skin structure infections by agar dilution method
Acinetobacter baumannii = experiment: Antibacterial activity against Acinetobacter baumannii obtained from complicated skin and skin structure infections by agar dilution method
Proteus vulgaris = experiment: Antibacterial activity against Proteus vulgaris obtained from complicated skin and skin structure infections by agar dilution method
Serratia marcescens = experiment: Antibacterial activity against Serratia marcescens obtained from complicated skin and skin structure infections by agar dilution method
Escherichia coli = experiment: Antibacterial activity against Escherichia coli obtained from complicated skin and skin structure infections by agar dilution method
Klebsiella pneumoniae = experiment: Antibacterial activity against Klebsiella pneumoniae obtained from complicated skin and skin structure infections by agar dilution method
Pseudomonas fluorescens = experiment: Antibacterial activity against Pseudomonas fluorescens obtained from complicated skin and skin structure infections by agar dilution method
[1] = system: Stenotrophomonas maltophilia; experiment: Antibacterial activity against Stenotrophomonas maltophilia obtained from complicated skin and skin structure infections by agar dilution method
Enterobacter amnigenus = experiment: Antibacterial activity against Enterobacter amnigenus obtained from complicated skin and skin structure infections by agar dilution method; conditions: Lelliottia amnigena
Providencia stuartii = experiment: Antibacterial activity against Providencia stuartii obtained from complicated skin and skin structure infections by agar dilution method
Citrobacter freundii = experiment: Antibacterial activity against Citrobacter freundii obtained from complicated skin and skin structure infections by agar dilution method

Compound	MIC50 (Proteus penneri)	MIC90 (Proteus penneri)	MIC50 (Citrobacter braakii)	MIC90 (Citrobacter braakii)	MIC50 (Klebsiella oxytoca)	MIC90 (Klebsiella oxytoca)	MIC50 (Salmonella)	MIC90 (Salmonella)	MIC50 (Pseudomonas aeruginosa)	MIC90 (Pseudomonas aeruginosa)	MIC50 (Morganella morganii)	MIC90 (Morganella morganii)	MIC50 (Klebsiella aerogenes)	MIC90 (Klebsiella aerogenes)	MIC50 (Proteus mirabilis)	MIC90 (Proteus mirabilis)	MIC50 (Acinetobacter baumannii)	MIC90 (Acinetobacter baumannii)	MIC50 (Proteus vulgaris)	MIC90 (Proteus vulgaris)	other results
C[C@@H](O)[C@H]1C(=O)N2C(C(=O)O)=C(S[C@@H]3CN[C@H](C(=O)N(C)C)C3)[C@H](C)[C@H]12 [MEROPENEM]	0.03 µg/mL (≈ 0.0782 µM)	≤ 0.12 µg/mL	0.03 µg/mL (≈ 0.0782 µM)	≤ 0.12 µg/mL	0.03 µg/mL (≈ 0.0782 µM)	≤ 0.12 µg/mL	0.03 µg/mL (≈ 0.0782 µM)	≤ 0.12 µg/mL	4 µg/mL (≈ 10.4 µM)	8 µg/mL (≈ 20.9 µM)	≤ 0.12 µg/mL	0.12 µg/mL (≈ 0.313 µM)	0.03 µg/mL (≈ 0.0782 µM)	≤ 0.12 µg/mL	0.06 µg/mL (≈ 0.156 µM)	≤ 0.12 µg/mL	2 µg/mL (≈ 5.22 µM)	> 32 µg/mL	0.03 µg/mL (≈ 0.0782 µM)	≤ 0.12 µg/mL	MIC50 (Enterobacter cloacae): 0.03 µg/mL (≈ 0.0782 µM); MIC90 (Enterobacter cloacae): ≤ 0.12 µg/mL; MIC50 (Serratia marcescens): 0.03 µg/mL (≈ 0.0782 µM); MIC90 (Serratia marcescens): ≤ 0.12 µg/mL; MIC (Escherichia coli): 0.015 µg/mL (≈ 0.0391 µM); MIC50 (Escherichia coli): 0.015 µg/mL (≈ 0.0391 µM); MIC90 (Escherichia coli): ≤ 0.12 µg/mL; MIC50 (Klebsiella pneumoniae): 0.03 µg/mL (≈ 0.0782 µM); MIC90 (Klebsiella pneumoniae): ≤ 0.12 µg/mL; MIC50 (Pseudomonas fluorescens): 2 µg/mL (≈ 5.22 µM); MIC90 (Pseudomonas fluorescens): > 32 µg/mL; MIC50 [1]: 2 µg/mL (≈ 5.22 µM); MIC90 [1]: > 32 µg/mL; MIC50 (Enterobacter amnigenus): 0.03 µg/mL (≈ 0.0782 µM); MIC90 (Enterobacter amnigenus): ≤ 0.12 µg/mL; MIC50 (Providencia stuartii): 0.03 µg/mL (≈ 0.0782 µM); MIC90 (Providencia stuartii): ≤ 0.12 µg/mL; MIC50 (Citrobacter freundii): 0.03 µg/mL (≈ 0.0782 µM); MIC90 (Citrobacter freundii): ≤ 0.12 µg/mL
O=C(O)c1cn(C2CC2)c2cc(N3CCNCC3)c(F)cc2c1=O [CIPROFLOXACIN]	0.015 µg/mL (≈ 0.0453 µM)	> 2 µg/mL	0.015 µg/mL (≈ 0.0453 µM)	> 2 µg/mL	0.015 µg/mL (≈ 0.0453 µM)	> 2 µg/mL	0.015 µg/mL (≈ 0.0453 µM)	> 2 µg/mL	1 µg/mL (≈ 3.02 µM)	> 8 µg/mL	0.12 µg/mL (≈ 0.362 µM)	> 8 µg/mL	0.015 µg/mL (≈ 0.0453 µM)	> 2 µg/mL	0.03 µg/mL (≈ 0.0905 µM)	> 2 µg/mL	> 2 µg/mL	> 8 µg/mL	0.015 µg/mL (≈ 0.0453 µM)	> 2 µg/mL	MIC50 (Serratia marcescens): 0.015 µg/mL (≈ 0.0453 µM); MIC90 (Serratia marcescens): > 2 µg/mL; MIC50 (Escherichia coli): 0.015 µg/mL (≈ 0.0453 µM); MIC90 (Escherichia coli): 1 µg/mL (≈ 3.02 µM); MIC50 (Pseudomonas fluorescens): > 2 µg/mL; MIC90 (Pseudomonas fluorescens): > 8 µg/mL; MIC50 [1]: > 2 µg/mL; MIC90 [1]: > 8 µg/mL; MIC50 (Enterobacter amnigenus): 0.015 µg/mL (≈ 0.0453 µM); MIC90 (Enterobacter amnigenus): > 2 µg/mL; MIC50 (Providencia stuartii): 0.015 µg/mL (≈ 0.0453 µM); MIC90 (Providencia stuartii): > 2 µg/mL; MIC50 (Citrobacter freundii): 0.015 µg/mL (≈ 0.0453 µM); MIC90 (Citrobacter freundii): > 2 µg/mL
GENTAMICIN									4 µg/mL	> 16 µg/mL											
